Source: patent US12275995B2, “Lysinibacillus sphaericus and aspirin chemoprevention of colorectal cancer” (priority 2019, dated 2025)

How the values were obtained:
[1] = test system: Lysinibacillus sphaericus; experiment: In vitro incubation of L. sphaericus with antibiotics (cell growth); assay type: cell-based; settings: in vitro incubation with single antibiotics of the cocktail
PGE2 = experiment: Plasma PGE2 by ELISA; assay type: in vivo, mice
Method: The plasma levels of PGE2 were measured using Multispecies Competitive ELISA Kit (Thermo Fisher Scientific). Briefly, 500 μL ice-cold methanol was added to 150 μL of plasma sample with 28 μM indomethacin and mixed vigorously. After acidification by 2M HCl to pH 3.5, the aqueous layer was extracted with 500 μL chloroform and centrifuged at 2000 g for 20 min^25. The […] organic phase was discarded, and the remaining aqueous phase was evaporated to dryness under nitrogen, before measurement by the kit.

COX-2 = COX-2 mRNA in distal colonic tissues by qRT-PCR; assay type: in vivo, mice; settings: for tissue COX-2 expression: compared to control mice
Method: Total RNA in distal colonic tissues was extracted using TRIzol reagent (Thermo Fisher Scientific). The quality and quantity of RNA were determined by NanoDrop2000 spectrophotometer. Complementary DNA (cDNA) was synthesized from 1000 ng of the extracted RNA by reverse transcription (PrimeScript RT Reagent Kit with gDNA Eraser) (Takara, Japan) and analyzed by qPCR with normalization by GAPDH. The primers used were: […]

[2] = Plasma aspirin/salicylic acid level in APCmin/+ mice with or without antibiotics (UHPLC-Q-TOF/MS); assay type: in vivo; settings: for plasma level of aspirin: antibiotics-treated APCmin/+ mice relative to mice with intact microbiota
Method: (§1) The levels of aspirin from plasma, gut luminal contents and culture medium was determined by ultra-high-performance liquid chromatography-quadrupole time-of-flight mass spectrometry (UHPLC-Q-TOF/MS). The detection sample was mixed in 5 μL 4-C1-phenylalanine (0.39 mg/mL, internal standard). Aspirin and salicylic acid were extracted twice by 400 μL cold methanol. Supernatants were dried under nitrogen stream and detected by UHPLC (1290 Infinity LC, Agilent, Santa Clara, Calif.) and MS (6550 Q-TOF/MS, Agilent, CA).
(§2) The primary metabolite of aspirin, salicylic acid, in culture medium was examined by Trinder's method^26. Equal number of fecal bacteria (estimated by optical density (OD) 600) from APC^min/+ mice with and without antibiotic treatment were inoculated into the brain heart infusion (BHI) medium (Thermo Fisher Scientific) containing aspirin (10 mM). After 2-hour co-incubation at 37° C., the level of salicylic acid in medium was measured by Trinder's method^26. Briefly, the supernatant of medium was mixed with a solution containing 40 g ferric nitrate, 40 g mercuric chloride and 120 mL 1N HCL in 1 L ddH2O at 1:5 ratio. Salicylic acid was quantified by absorbance value at 540 nm. The plasma and luminal content levels of salicylic acid were evaluated by UHPLC-Q-TOF/MS.
To determine the reason for the enhanced CRC inhibitory effect of aspirin in microbiota-depleted mice, the plasma level of aspirin was evaluated in mice with or without intact microbiota. Antibiotics cocktail was administered to APC^min/+ mice for five days followed by oral administration of aspirin (10 mg/kg) (FIG. 4A), and subsequent UHPLC-Q-TOF/MS analysis (FIG. 4B). […] To confirm this observation, the level of salicylic acid, the primary metabolite of aspirin, was evaluated in the plasma. The plasma level of salicylic acid increased at 1 h post aspirin administration in microbiota-depleted mice compared to mice with intact microbiota (FIG. 9). These findings indicate that the gut microbiota is associated with the reduction of aspirin bioavailability.

fecal bacteria = assay type: in vitro ADME, mice
Method: as §2, with “The levels of aspirin from plasma, gut luminal contents and culture medium was determined by ultra-high-performance liquid chromatography-quadrupole time-of-flight mass spectrometry (UHPLC-Q-TOF/MS). The detection sample was mixed in 5 μL 4-[…] (0.39 mg/mL, internal standard). Aspirin and salicylic acid were extracted twice by 400 μL cold methanol. Supernatants were dried under nitrogen stream and detected by UHPLC (1290 Infinity LC, Agilent, Santa Clara, Calif.) and MS (6550 Q-TOF/MS, Agilent, CA). The primary” for “The primary”, “by UHPLC-Q-TOF/MS. Mouse feces were mixed with cooked meat (CM) medium (Thermo Fisher Scientific). […]” for “by UHPLC-Q-TOF/MS.”

colorectal tumorigenesis [3] = experiment: AOM/DSS-treated germ-free and conventionalized germ-free Kunming mice; assay type: in vivo
Method: Germ-free wild-type Kunming mice (10 weeks old) in male gender were treated with AOM and DSS to induce intestinal neoplasia. The treatment regimens of AOM, DSS and aspirin were the same as described for conventional mice. In a separate experiment, to determine the direct effects of microbiota on chemoprevention, germ-free mice were conventionalized after their cages were placed out of germ-free environment at 10 weeks old prior to treatment. The remaining procedures performed were the same as described for conventional mice. Germ-free mice were bred at the Department of Laboratory Animal Science, The Third Military Medical University, Chongqing, China. The germ-free animal experiments were approved by the Animal Experimentation Ethics Committee of The Third Military Medical University.

colorectal tumorigenesis [4] = experiment: AOM/DSS-induced colorectal cancer model in conventional C57BL/6 mice; assay type: in vivo
Text: (§3) For each cycle, mice were allowed free access to drinking water supplemented with 2.0% DSS for 5 days, followed by 16 days of regular water. Drinking water was supplemented with antibiotics cocktail (0.2 g/L of ampicillin, neomycin and metronidazole and 0.1 g/L of vancomycin) for two weeks, every other two weeks, till the end of experiment, to deplete the gut microbiota. […] At day 80 for AOM/DSS model and day 84 for APC^min/+ model, mice were harvested. The intestines were longitudinally opened along the mesenteric margin and flushed with ice-cold phosphate-buffered saline (PBS). Solid neoplastic lesions were carefully counted for tumor number and measured for tumor size (average diameter, (major diameter+minor diameter)/2) and tumor load (sum of average diameters of all tumors). The intestinal tissues were fixed in 10% neutral buffered formalin and embedded in paraffin. Sections (4 μm) were stained with hematoxylin and eosin for histological examination by a pathologist (A/Professor Anthony W H Chan) who was blind to the experimental design. The remaining tissues were snap-frozen in liquid nitrogen, and stored at −80° C. until use. All procedures adhered to the guidelines approved by the Animal Experimentation Ethics Committee of the Chinese University of Hong Kong.

gut microbiota = experiment: Shotgun metagenomics of feces from aspirin-treated versus control APCmin/+ mice; assay type: in vivo
Method: Whole-genome shotgun metagenomic sequencing of fecal samples from mice were performed on Illumina HiSeq 2000 (Illumina, San Diego, Calif.) as previously described^27. […] Mammalian genomes (hg38, felCat8, canFam3, mm10, rn6, susScr3, galGal4 and bosTau8; UCSC Genome Browser) and 6877 bacterial plasmids (NCBI RefSeq database accessed on May 12, 2016), 2116 complete plastomes (NCBI RefSeq database accessed on May 12, 2016) and 6093 UNiVec sequences (NCBI RefSeq database accessed on May 12, 2016), which are potential habitat-/laboratory-associated or extra-chromosomal sequence contaminants, were removed after alignment using Bowtie2 v_2.2.9 with “very-sensitive” default settings. Taxonomy was assigned to metagenomic reads using k-mer-based algorithms implemented in Kraken taxonomic annotation pipeline with each k-mer in a read mapped to the lowest common ancestor of all reference genomes with exact k-mer matches. Each query was thereafter classified to a taxon with the highest total hits of k-mer matched by pruning the general taxonomic trees affiliated with mapped genomes. The final metagenomic read counts were rarified to the sample with the lowest value and further normalized by cumulative sum scaling. In-house fecal metagenomic sequences were examined for the abundance of candidate bacteria identified from mouse fecal samples^27,28.

[5] = Plasma and luminal aspirin/salicylic acid level in L. sphaericus-monocolonized germ-free mice; assay type: in vivo; settings: for plasma level of aspirin: L. sphaericus-monocolonized germ-free mice compared with control germ-free mice
Method: as §1, §2
In order to determine whether L. sphaericus can degrade aspirin and impacts its bioavailability in vivo, germ-free mice were gavaged with L. sphaericus (1×10^8 CFU) once/day for three days, followed by oral administration of aspirin (10 mg/kg) (FIG. 6C). […] Taken together, these findings from in vitro and in vivo experiments indicate that L. sphaericus causes aspirin degradation in the gut, thereby reducing aspirin bioavailability.

[6] = reference 24, cited from earlier work
colorectal tumorigenesis [7] = experiment: APCmin/+ spontaneous colorectal cancer mouse model; assay type: in vivo; settings: aspirin 400 mg/L drinking water; microbiota-depleted APCmin/+ mice
Method: as §3, with “Drinking” for “For each cycle, mice were allowed free access to drinking water supplemented with 2.0% DSS for 5 days, followed by 16 days of regular water. Drinking”, “microbiota. Aspirin (Byer, Leverkusen, Germany), freshly prepared (400 mg/L) in drinking water twice a week, was continuously given to mice through the entire experiment.” for “microbiota.”

[8] = AOM/DSS mice with depleted microbiota
[9] = APCmin/+ mice with depleted microbiota
[10] = 0.5 h post oral aspirin 10 mg/kg
[11] = AOM/DSS-treated conventionalized germ-free mice
[12] = AOM/DSS-treated germ-free mice, relative to untreated germ-free control mice
[13] = aspirin 400 mg/L drinking water, microbiota-depleted (antibiotics cocktail) AOM/DSS-treated mice, vs no aspirin
[14] = high-dose aspirin 1200 mg/L, conventional AOM/DSS-treated mice gavaged with L. sphaericus twice/week
[15] = higher dose aspirin 1200 mg/L in drinking water, microbiota-intact AOM/DSS-treated mice, vs mice without aspirin
[16] = aspirin-treated APCmin/+ mice compared to control

## CC1(C)S[C@@H]2[C@H](NC(=O)[C@H](N)c3ccccc3)C(=O)N2[C@H]1C(=O)O [ampicillin]
[1]
  growth of L. sphaericus: inhibiting the growth

## CC(=O)Oc1ccccc1C(=O)O [aspirin, acetylsalicylic acid]
PGE2; [8]
  plasma PGE2 level: significantly decreased
PGE2; AOM/DSS-treated germ-free mice
  plasma PGE2 level: reductions
PGE2; [9]
  plasma PGE2 level: significantly decreased
PGE2; conventional mice with intact microbiota, compared to control mice
  plasma PGE2 level: no differences
PGE2; conventionalized germ-free mice, compared to control mice
  plasma PGE2 level: no differences
COX-2; [8]
  colonic COX-2 mRNA level: significantly decreased
COX-2; AOM/DSS-treated germ-free mice
  COX-2 expression: reductions
COX-2; [9]
  colonic COX-2 mRNA level: significantly decreased
COX-2; conventional mice with intact microbiota
  tissue COX-2 expression: no differences
COX-2; conventionalized germ-free mice
  tissue COX-2 expression: no differences
[2]; [10]
  plasma level of aspirin: significantly increased
[2]; 1 h post oral aspirin 10 mg/kg
  plasma level of aspirin: significantly increased
[2]; 1 h post oral aspirin 10 mg/kg, microbiota-depleted mice compared to mice with intact microbiota
  plasma level of salicylic acid (primary metabolite of aspirin): increased
Fecal bacteria
  salicylic acid level in the medium (UHPLC-Q-TOF/MS): not significantly different
Colorectal tumorigenesis [3]; [11]
  suppressive effect on tumorigenesis (tumor load): impaired by conventionalization
  suppressive effect on tumorigenesis (tumor number): impaired by conventionalization
Colorectal tumorigenesis [3]; [12]
  colorectal tumor load: significantly reduced
  colorectal tumor number: significantly reduced
Colorectal tumorigenesis [4]; [13]
  colorectal tumor load: significant reductions
  colorectal tumor number: significant reductions
Colorectal tumorigenesis [4]; [14]
  preventive effect on tumor load: marginally
  preventive effect on tumor number: impaired the preventive effect
Colorectal tumorigenesis [4]; [15]
  colorectal tumor load: significantly reduced
  colorectal tumor number: significantly reduced
Gut microbiota; antibiotics-naive aspirin-treated APCmin/+ vs control mice
  association between microbial community composition and aspirin treatment (multivariate component analysis): significant associations
Gut microbiota; [16]
  Bifidobacterium and Lactobacillus genera (linear discriminant analysis effect size): enrichment
  Clostridium and Clostridiodes genera: depleted
  probiotic species B. pseudolongum, B. breve, B. animalis, L. reuteri, L. gasseri, L. johnsonii: enriched
[5]; [10]
  plasma level of aspirin: significantly reduced
[5]; 1 h post oral aspirin 10 mg/kg
  plasma level of aspirin: significantly reduced
[5]; 3 h post oral aspirin 10 mg/kg, L. sphaericus-monocolonized mice compared to control germ-free mice
  level of salicylic acid in the colon luminal content: significantly reduced
[5]; 3 h post oral aspirin 10 mg/kg, L. sphaericus-monocolonized mice vs control germ-free mice
  plasma level of salicylic acid: significantly lowered
[6]; after oral administration
  level in circulation, effect of gut microbiota: reducing its level in circulation
[6]; intravenous administration
  difference in blood levels of aspirin in rats with and without microbial depletion: abolished by intravenous administration
[6]; oral administration
  antithrombotic activity, effect of gut microbiota: reduced the antithrombotic activity
Colorectal tumorigenesis [7]
  colorectal tumor load: significantly decreased
  colorectal tumor number: significantly decreased
